This is an account of results in ChEMBL document CHEMBL5291721, “A preclinical secondary pharmacology resource illuminates target-adverse drug reaction associations of marketed drugs” (Nat Commun, 2023).

Each structure is given as a SMILES string.

Broadly, the AC50 is the midpoint of the concentration-response curve, whichever way the signal moves.

In one assay the target is T1, Endothelin-1 receptor (Homo sapiens, UniProt P25101).
T1 sequence (P25101 whole entry): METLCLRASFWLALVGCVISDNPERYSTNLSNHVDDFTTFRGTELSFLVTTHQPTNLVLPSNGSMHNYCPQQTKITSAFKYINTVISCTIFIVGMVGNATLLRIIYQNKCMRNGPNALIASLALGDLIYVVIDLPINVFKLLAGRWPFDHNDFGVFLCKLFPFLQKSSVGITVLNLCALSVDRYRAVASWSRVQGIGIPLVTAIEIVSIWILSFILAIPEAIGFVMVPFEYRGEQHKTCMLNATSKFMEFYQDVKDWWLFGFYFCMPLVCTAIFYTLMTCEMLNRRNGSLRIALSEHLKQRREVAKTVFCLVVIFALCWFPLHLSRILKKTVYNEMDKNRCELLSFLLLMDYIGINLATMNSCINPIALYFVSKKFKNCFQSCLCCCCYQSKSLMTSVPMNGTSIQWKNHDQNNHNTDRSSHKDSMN

Assay [1] concerns the target T2, Progesterone receptor (Homo sapiens, UniProt P06401).
T2 sequence (P06401 whole entry): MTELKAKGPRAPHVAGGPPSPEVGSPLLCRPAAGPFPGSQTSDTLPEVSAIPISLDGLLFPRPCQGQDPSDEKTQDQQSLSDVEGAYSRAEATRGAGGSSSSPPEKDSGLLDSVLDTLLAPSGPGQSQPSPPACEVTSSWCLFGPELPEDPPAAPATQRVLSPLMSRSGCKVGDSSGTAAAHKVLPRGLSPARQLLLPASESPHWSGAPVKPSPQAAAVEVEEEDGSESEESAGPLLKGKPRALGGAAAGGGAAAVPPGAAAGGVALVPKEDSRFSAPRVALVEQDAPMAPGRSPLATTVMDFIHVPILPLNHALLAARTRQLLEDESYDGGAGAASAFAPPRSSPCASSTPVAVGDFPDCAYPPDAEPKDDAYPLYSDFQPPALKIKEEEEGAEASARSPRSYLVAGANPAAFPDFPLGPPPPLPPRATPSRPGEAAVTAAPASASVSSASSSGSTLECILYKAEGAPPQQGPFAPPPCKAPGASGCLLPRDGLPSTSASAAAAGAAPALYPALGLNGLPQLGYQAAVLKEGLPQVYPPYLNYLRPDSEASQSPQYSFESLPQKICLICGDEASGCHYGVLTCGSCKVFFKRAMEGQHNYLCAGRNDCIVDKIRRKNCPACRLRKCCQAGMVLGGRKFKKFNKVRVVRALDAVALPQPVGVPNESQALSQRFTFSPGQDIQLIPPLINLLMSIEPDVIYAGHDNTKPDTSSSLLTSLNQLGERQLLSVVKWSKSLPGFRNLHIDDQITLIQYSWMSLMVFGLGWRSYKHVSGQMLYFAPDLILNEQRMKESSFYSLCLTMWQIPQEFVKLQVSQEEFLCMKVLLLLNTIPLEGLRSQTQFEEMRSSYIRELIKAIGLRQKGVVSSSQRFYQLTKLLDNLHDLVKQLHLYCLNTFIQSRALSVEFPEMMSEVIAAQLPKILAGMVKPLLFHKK
It is filed as functional.

For the next assay, the target named is Histamine H1 receptor (Homo sapiens, UniProt P35367).
Histamine H1 receptor, sequence (P35367 whole entry): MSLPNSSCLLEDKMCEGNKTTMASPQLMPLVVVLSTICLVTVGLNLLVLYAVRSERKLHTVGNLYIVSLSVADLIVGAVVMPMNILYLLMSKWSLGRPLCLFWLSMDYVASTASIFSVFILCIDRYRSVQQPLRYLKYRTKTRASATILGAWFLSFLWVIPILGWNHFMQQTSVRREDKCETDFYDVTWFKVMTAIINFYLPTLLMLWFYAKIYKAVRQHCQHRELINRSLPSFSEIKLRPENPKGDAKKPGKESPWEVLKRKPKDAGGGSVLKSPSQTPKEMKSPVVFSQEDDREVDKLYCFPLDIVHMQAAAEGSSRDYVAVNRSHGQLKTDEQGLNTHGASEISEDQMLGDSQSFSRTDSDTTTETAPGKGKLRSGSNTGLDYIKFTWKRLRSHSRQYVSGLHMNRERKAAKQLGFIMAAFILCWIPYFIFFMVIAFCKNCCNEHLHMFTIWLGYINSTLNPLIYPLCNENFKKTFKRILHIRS
The target in assay [2] is T2, Progesterone receptor. It is filed as functional. The source holds these as a separate data set.
Assay [3] concerns the target Kappa-type opioid receptor (Homo sapiens, UniProt P41145).
The target in assay [4] is Sodium-dependent serotonin transporter (Homo sapiens, UniProt P31645).
Sodium-dependent serotonin transporter, sequence (P31645 whole entry): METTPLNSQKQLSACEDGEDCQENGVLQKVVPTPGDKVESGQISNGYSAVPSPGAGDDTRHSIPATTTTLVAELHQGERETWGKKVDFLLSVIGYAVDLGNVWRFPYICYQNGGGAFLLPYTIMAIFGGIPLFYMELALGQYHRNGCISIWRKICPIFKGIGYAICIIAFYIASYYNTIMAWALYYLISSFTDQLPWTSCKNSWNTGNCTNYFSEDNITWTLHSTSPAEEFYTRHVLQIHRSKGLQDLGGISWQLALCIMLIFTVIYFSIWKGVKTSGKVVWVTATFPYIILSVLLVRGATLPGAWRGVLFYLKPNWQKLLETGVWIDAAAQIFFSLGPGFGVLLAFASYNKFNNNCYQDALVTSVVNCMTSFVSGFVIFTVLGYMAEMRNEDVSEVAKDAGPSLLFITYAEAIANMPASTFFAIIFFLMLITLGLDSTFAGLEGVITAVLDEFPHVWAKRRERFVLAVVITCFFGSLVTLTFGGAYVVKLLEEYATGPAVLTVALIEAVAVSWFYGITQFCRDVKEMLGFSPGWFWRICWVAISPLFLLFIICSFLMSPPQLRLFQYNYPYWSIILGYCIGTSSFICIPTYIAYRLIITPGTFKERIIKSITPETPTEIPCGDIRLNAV
In assay [5] the target is Voltage-dependent L-type calcium channel subunit alpha-1C (Rattus norvegicus, UniProt P22002). It is filed as functional.
Voltage-dependent L-type calcium channel subunit alpha-1C, sequence (P22002 whole entry): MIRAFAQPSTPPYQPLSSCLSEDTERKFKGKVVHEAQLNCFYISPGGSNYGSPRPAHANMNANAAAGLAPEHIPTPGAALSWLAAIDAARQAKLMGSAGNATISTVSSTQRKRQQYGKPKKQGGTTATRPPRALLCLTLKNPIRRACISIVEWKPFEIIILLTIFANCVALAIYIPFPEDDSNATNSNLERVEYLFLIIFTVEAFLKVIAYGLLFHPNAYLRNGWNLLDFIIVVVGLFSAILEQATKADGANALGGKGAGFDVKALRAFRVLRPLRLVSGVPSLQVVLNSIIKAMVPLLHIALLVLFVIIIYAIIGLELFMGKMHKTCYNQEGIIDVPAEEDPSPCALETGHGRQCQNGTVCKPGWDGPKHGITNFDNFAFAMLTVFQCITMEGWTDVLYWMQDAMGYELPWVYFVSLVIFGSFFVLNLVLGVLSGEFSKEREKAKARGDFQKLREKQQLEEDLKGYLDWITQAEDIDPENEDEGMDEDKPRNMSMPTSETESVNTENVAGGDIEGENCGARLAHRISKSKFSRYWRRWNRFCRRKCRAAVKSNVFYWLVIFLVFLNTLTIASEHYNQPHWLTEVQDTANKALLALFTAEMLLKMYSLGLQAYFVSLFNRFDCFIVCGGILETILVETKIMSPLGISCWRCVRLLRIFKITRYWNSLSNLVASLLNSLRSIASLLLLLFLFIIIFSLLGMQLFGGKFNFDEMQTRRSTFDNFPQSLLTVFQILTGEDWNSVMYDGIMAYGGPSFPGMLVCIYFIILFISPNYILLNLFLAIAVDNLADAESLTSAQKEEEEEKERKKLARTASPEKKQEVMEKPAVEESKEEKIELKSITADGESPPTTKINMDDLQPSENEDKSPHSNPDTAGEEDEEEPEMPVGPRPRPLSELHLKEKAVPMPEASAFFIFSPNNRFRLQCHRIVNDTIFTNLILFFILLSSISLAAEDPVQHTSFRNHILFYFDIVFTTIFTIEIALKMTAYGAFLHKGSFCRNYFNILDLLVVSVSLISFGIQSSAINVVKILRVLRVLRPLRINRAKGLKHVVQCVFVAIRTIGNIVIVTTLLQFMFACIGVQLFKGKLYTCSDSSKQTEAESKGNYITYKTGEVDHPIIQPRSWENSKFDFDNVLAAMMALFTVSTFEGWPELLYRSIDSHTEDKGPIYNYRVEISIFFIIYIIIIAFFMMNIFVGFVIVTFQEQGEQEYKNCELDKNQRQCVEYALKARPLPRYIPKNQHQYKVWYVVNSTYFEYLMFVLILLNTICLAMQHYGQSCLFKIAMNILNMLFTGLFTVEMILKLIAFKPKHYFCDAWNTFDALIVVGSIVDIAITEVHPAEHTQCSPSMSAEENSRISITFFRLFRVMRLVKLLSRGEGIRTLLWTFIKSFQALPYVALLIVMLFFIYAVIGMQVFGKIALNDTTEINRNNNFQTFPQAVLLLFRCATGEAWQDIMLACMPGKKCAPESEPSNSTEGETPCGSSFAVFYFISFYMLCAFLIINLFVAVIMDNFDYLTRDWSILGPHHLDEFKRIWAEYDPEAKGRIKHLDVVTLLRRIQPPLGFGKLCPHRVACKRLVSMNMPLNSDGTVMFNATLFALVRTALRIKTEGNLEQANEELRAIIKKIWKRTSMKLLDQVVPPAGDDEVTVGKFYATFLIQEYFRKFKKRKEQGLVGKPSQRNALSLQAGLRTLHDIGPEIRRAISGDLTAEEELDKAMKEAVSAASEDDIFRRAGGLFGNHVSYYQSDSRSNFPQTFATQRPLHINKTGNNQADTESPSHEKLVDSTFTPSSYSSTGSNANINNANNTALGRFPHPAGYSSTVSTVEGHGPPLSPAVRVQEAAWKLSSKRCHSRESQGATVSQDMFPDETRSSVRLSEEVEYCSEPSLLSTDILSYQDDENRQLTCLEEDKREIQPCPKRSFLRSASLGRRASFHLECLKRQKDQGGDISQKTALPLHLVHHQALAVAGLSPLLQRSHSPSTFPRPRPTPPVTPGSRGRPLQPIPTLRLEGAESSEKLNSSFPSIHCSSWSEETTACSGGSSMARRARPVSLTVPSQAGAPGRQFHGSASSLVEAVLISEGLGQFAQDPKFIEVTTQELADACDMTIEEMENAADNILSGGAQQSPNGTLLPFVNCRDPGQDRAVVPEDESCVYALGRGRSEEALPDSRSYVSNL
Assay [6] has as its target T3, Alpha-2B adrenergic receptor (Homo sapiens, UniProt P18089).
T3 sequence (P18089 whole entry): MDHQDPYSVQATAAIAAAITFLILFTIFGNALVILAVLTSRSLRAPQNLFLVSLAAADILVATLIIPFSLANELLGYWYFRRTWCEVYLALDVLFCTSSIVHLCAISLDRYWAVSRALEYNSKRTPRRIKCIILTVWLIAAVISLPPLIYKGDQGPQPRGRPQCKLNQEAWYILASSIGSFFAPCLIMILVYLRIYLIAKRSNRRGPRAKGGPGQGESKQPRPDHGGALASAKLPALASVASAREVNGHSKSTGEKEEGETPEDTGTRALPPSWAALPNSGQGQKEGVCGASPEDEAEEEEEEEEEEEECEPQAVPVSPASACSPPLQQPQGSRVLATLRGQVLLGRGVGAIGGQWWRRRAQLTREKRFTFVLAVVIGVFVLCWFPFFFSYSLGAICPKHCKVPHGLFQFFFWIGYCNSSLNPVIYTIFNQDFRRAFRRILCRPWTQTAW

For the next assay, the target named is Mu-type opioid receptor (Homo sapiens, UniProt P35372). Briefly: biochemical. It is filed as functional.
Mu-type opioid receptor, sequence (P35372 whole entry): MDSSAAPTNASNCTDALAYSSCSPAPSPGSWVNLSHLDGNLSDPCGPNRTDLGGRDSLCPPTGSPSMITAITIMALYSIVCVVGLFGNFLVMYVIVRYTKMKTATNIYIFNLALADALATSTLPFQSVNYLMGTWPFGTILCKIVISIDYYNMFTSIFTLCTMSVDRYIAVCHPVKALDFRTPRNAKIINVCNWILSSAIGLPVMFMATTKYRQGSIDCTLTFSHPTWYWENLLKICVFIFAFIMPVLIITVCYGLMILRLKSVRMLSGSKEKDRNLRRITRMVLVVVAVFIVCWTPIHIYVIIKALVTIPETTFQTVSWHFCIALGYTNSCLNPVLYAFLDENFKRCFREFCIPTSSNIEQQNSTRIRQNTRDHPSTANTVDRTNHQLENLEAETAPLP
Assay [7] has as its target T4, Muscarinic acetylcholine receptor M1 (Homo sapiens, UniProt P11229).
T4 sequence (P11229 whole entry): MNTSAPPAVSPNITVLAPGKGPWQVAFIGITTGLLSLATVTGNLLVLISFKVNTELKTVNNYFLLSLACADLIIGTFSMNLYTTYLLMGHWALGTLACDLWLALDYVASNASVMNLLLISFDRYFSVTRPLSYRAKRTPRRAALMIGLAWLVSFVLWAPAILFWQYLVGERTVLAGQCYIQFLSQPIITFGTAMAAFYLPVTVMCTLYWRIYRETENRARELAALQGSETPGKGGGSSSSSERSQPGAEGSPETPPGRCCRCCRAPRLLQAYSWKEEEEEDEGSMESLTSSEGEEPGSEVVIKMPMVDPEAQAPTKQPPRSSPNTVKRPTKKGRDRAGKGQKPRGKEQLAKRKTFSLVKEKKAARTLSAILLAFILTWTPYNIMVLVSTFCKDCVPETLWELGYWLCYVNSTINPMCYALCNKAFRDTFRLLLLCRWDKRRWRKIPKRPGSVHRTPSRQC
It is filed as functional.

Another assay addresses D(3) dopamine receptor (Homo sapiens, UniProt P35462).
Assay [8] addresses Beta-2 adrenergic receptor (Homo sapiens, UniProt P07550).
Also: assay procedure not described here.

D(3) dopamine receptor, sequence (P35462 whole entry): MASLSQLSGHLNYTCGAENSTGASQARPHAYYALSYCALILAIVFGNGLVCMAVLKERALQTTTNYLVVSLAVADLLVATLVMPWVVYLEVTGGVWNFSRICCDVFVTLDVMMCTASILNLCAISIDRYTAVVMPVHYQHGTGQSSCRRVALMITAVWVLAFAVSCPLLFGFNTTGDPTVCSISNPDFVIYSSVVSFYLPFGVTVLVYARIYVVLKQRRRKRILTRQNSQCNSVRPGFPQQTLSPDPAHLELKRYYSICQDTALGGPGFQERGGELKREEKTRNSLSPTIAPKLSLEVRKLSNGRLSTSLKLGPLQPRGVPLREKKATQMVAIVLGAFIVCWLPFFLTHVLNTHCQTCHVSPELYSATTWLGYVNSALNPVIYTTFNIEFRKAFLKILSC
Beta-2 adrenergic receptor, sequence (P07550 whole entry): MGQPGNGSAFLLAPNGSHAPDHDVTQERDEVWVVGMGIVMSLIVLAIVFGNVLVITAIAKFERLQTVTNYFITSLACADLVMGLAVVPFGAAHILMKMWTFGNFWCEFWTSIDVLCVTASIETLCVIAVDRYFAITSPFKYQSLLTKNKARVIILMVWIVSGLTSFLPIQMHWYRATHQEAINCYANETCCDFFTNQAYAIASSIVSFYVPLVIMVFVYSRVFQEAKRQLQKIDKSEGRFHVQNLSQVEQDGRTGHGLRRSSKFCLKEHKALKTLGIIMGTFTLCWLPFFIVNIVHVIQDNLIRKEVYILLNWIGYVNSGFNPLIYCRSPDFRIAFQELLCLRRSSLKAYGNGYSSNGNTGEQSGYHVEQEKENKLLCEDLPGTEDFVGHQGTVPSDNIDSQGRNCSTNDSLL
Kappa-type opioid receptor, sequence (P41145 whole entry): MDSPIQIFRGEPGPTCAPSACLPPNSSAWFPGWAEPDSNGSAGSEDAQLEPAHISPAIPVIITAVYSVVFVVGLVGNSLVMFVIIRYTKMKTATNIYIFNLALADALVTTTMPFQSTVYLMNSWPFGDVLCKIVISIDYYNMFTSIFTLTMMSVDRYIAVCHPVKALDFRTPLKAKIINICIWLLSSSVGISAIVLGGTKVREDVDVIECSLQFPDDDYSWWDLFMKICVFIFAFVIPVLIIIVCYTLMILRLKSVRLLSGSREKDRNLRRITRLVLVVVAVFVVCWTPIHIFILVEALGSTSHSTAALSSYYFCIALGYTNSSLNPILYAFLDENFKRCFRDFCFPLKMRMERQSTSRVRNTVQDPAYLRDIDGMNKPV

Regarding `C=C[C@@]1(C)CC(=O)[C@]2(O)[C@@]3(C)[C@@H](O)CCC(C)(C)[C@@H]3[C@H](OC(=O)CCN(C)C)[C@H](OC(C)=O)[C@@]2(C)O1`, the AC50 (on Endothelin-1 receptor; on Progesterone receptor [1]; on Histamine H1 receptor; on Progesterone receptor [2]; in [3]; in assay [4]) was greater than 30 µM in each case. Moreover, the AC50 (in assay [5]; in assay [6]; on Mu-type opioid receptor; in [7]; on D(3) dopamine receptor) was greater than 30 µM in each case.

Consider `CCC(=O)OCC(=O)[C@@]1(OC(=O)CC)[C@@H](C)C[C@H]2[C@@H]3CCC4=CC(=O)C=C[C@]4(C)[C@@]3(F)[C@@H](O)C[C@@]21C` [BETAMETHASONE DIPROPIONATE], for which the AC50 in assay [8] was greater than 30 µM; on Endothelin-1 receptor, greater than 30 µM; at Progesterone receptor [1] it was 0.3 µM; at Histamine H1 receptor, greater than 30 µM; in assay [3] it was greater than 30 µM; in assay [4] it was greater than 30 µM. The AC50 (in [5]; in assay [6]; on Mu-type opioid receptor; in assay [7]; at D(3) dopamine receptor) was greater than 30 µM in each case.

For the compound `O=C(O)c1ccccc1Nc1cccc(C(F)(F)F)c1` [FLUFENAMIC ACID], the concentration at half-maximal activity (AC50) in [8] is greater than 10 µM; on Endothelin-1 receptor, greater than 30 µM; on Histamine H1 receptor, 0.082 µM; in [3], greater than 30 µM; in assay [4], greater than 30 µM; in assay [5] it was greater than 10 µM. In addition, the AC50 was greater than 10 µM in assay [6], greater than 30 µM on Mu-type opioid receptor, 0.54 µM in [7] and 3.5 µM at D(3) dopamine receptor.

As to `C#C[C@]1(O)CC[C@H]2[C@@H]3CCC4=CC(=O)CCC4=C3C=C[C@@]21CC` [GESTRINONE], the AC50 was greater than 30 µM in [8]; greater than 30 µM on Endothelin-1 receptor; 0.1 µM on Progesterone receptor [1]; greater than 30 µM at Histamine H1 receptor; 23 µM in assay [3]; 0.033 µM in assay [4]. Besides, the AC50 (in assay [5]; in assay [6]; at Mu-type opioid receptor; in assay [7]; at D(3) dopamine receptor) was greater than 30 µM throughout.

As for `Cc1ccc(NC(=O)C2(c3ccc4c(c3)OC(F)(F)O4)CC2)nc1-c1cccc(C(=O)O)c1` [LUMACAFTOR], the AC50 (on Endothelin-1 receptor; at Progesterone receptor [1]; at Histamine H1 receptor; at Progesterone receptor [2]; in assay [3]; in assay [4]) was greater than 30 µM throughout. The half-maximal activity concentration (AC50) (in [6]; on Mu-type opioid receptor; in assay [7]; on D(3) dopamine receptor) was greater than 30 µM in each case.

With `CC(=O)c1ccc2c(c1)N(CCCN1CCC(CCO)CC1)c1ccccc1S2` [PIPERACETAZINE], the AC50 in assay [8] is 22 µM; at Endothelin-1 receptor, greater than 30 µM; on Progesterone receptor [1], greater than 30 µM; on Histamine H1 receptor, 0.034 µM; in assay [3], 4 µM; in assay [4], 1.3 µM. For the same compound, the AC50 is greater than 30 µM in assay [5]; 0.068 µM in assay [6]; greater than 30 µM at Mu-type opioid receptor; 7.9 µM in assay [7]; 0.017 µM at D(3) dopamine receptor.

For the compound `Cc1ccc(=O)n(-c2ccccc2)c1` [PIRFENIDONE], the AC50 (in assay [8]; on Endothelin-1 receptor; on Progesterone receptor [1]; on Histamine H1 receptor; on Progesterone receptor [2]; in assay [3]) was greater than 30 µM throughout. For the same compound, the AC50 (in [4]; in [6]; at Mu-type opioid receptor; in assay [7]; at D(3) dopamine receptor) was greater than 30 µM each time.

On to `Cc1cc2nc3c(=O)[nH]c(=O)nc-3n(C[C@H](O)[C@H](O)[C@H](O)COP(=O)(O)O)c2cc1C` [RIBOFLAVIN 5'-PHOSPHATE], for which the AC50 (in assay [8]; at Endothelin-1 receptor; on Progesterone receptor [1]; at Histamine H1 receptor; in assay [3]; in assay [4]) was greater than 30 µM in each case. For the same compound, the AC50 in assay [5] was 15 µM; in assay [6], greater than 30 µM; at Mu-type opioid receptor it was greater than 30 µM; in [7], greater than 30 µM; on D(3) dopamine receptor it was greater than 30 µM.

In the case of `CN1CCN(c2c(F)cc3c(=O)c(C(=O)O)cn4c3c2SCC4)CC1` [RUFLOXACIN], the AC50 (on Endothelin-1 receptor; on Progesterone receptor [1]; on Histamine H1 receptor; on Progesterone receptor [2]; in assay [3]; in assay [4]) was greater than 30 µM in each case. Besides, the AC50 in [6] is 9.8 µM; at Mu-type opioid receptor, greater than 30 µM; in assay [7], greater than 30 µM; on D(3) dopamine receptor, greater than 30 µM.

Consider `COc1c(O[C@@H]2O[C@H](CO)[C@@H](O)[C@H](O)[C@H]2O)cc2c(c1OC)-c1ccc(SC)c(=O)cc1[C@@H](NC(C)=O)CC2` [THIOCOLCHICOSIDE], for which the AC50 (at Endothelin-1 receptor; at Progesterone receptor [1]; on Histamine H1 receptor; at Progesterone receptor [2]; in [3]; in assay [4]) was greater than 30 µM each time. Moreover, the AC50 (in assay [5]; in [6]; on Mu-type opioid receptor; in assay [7]; at D(3) dopamine receptor) was greater than 30 µM each time.

Take `N#C[C@@H]1CCCN1C(=O)CNC12CC3CC(CC(O)(C3)C1)C2` [VILDAGLIPTIN]: the AC50 is greater than 10 µM in assay [8]; greater than 30 µM at Histamine H1 receptor; greater than 30 µM in assay [3]; greater than 30 µM in [4]; greater than 30 µM in assay [6]; greater than 30 µM on Mu-type opioid receptor. Further, the AC50 (in assay [7]; at D(3) dopamine receptor) was greater than 30 µM each time.
